How the values were obtained:
KMS-12-BM cell lines = assay: KMS12 #2 flow cytometry assay (phospho-BAD Ser112); assay type: cell-based; settings: Homo sapiens, 110 min; KMS-12-BM cells, pBAD Ser112 by flow cytometry, 110 min with compound; read-out: KMS-12-Flow IC50 IP
Pim-1 = Pim-1 (Homo sapiens (Human), UniProt P11309); assay: Pim-Mn enzyme assay (HTRF, 384-well), Pim-1; assay type: biochemical; settings: Pim-1 enzyme 5 pM, ATP 1.5 μM, BAD (S112) 0.5 μM, HTRF, 22-point curve; read-out: Pim-1-Mn IC50 IP
Sequence of Pim-1 (P11309 whole entry): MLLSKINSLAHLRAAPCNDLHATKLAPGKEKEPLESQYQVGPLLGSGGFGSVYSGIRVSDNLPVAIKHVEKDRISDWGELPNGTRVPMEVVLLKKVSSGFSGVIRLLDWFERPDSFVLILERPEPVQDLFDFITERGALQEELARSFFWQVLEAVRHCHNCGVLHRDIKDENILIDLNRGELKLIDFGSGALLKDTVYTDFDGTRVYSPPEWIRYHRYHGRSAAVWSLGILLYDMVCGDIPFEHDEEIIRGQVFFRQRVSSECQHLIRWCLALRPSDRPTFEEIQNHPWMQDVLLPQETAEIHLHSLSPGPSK

Pim-2 = Pim-2 (Homo sapiens (Human), UniProt Q9P1W9); assay: Pim-Mn enzyme assay (HTRF, 384-well), Pim-2; assay type: biochemical; settings: Pim-2 enzyme 0.5 pM, ATP 1.5 μM, BAD (S112) 0.5 μM, HTRF, 22-point curve; read-out: Pim-2-Mn IC50 IP
Sequence of Pim-2 (Q9P1W9 whole entry): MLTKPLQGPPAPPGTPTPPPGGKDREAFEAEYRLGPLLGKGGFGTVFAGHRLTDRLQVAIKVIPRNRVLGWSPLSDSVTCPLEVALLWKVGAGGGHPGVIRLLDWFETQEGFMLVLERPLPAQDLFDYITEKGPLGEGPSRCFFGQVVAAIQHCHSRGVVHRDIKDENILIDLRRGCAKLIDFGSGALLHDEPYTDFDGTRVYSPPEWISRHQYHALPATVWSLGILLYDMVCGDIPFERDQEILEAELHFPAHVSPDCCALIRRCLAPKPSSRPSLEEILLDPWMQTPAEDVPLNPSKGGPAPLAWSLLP

Row | Structure (SMILES) | IC50 (KMS-12-BM cell lines) [nM] | IC50 (Pim-1) [nM] | IC50 (Pim-2) [nM]
1 | Cc1nc2cccc(-c3cc4c([nH]3)C(CO)NC4=O)c2nc1NC(C)(C)C (racemic) [Example 469, (R)-2-(3-(tert-butylamino)-2-methylquinoxalin-5-yl)-6-(hydroxymethyl)-5,6-dihydropyrrolo[3,4-b]pyrrol-4(1H)-one and (S)-2-(3-(tert-butylamino)-2-methylquinoxalin-5-yl)-6-(hydroxymethyl)-5,6-dihydropyrrolo[3,4-b]pyrrol-4(1H)-one] | 119 |  | 
2 | CC(C)n1c(NC(C)(C)C)nc2c(-c3cc4c([nH]3)[C@@H](C)NC4=O)cccc2c1=O [Example 406, 2-(tert-butylamino)-3-(1-methylethyl)-8-((6R)-6-methyl-4-oxo-1,4,5,6-tetrahydropyrrolo[3,4-b]pyrrol-2-yl)-4(3H)-quinazolinone] | 30 |  | 
3 | Cn1c(NC(C)(C)C)nc2c(-c3cc4n(c3)CCNC4=O)cccc2c1=O [Example 449, 2-(tert-butylamino)-3-methyl-8-(1-oxo-1,2,3,4-tetrahydropyrrolo[1,2-a]pyrazin-7-yl)-4(3H)-quinazolinone] | 429 |  | 
4 | Cc1nc2cccc(-c3cc4c([nH]3)[C@@H](C)NC4=O)c2nc1N[C@H]1CCC[C@@H](N)C1 [Example 483, (6R)-2-(3-(((1S,3R)-3-aminocyclohexyl)amino)-2-methyl-5-quinoxalinyl)-6-methyl-5,6-dihydropyrrolo[3,4-b]pyrrol-4(1H)-one] |  | 0.0598 | 0.0358
5 | Cc1nc2cccc(-c3cc4c(=O)[nH]cnc4[nH]3)c2nc1F [Example 264, 6-(3-fluoro-2-methylquinoxalin-5-yl)-3H-pyrrolo[2,3-d]pyrimidin-4(7H)-one] |  | 1120 | 1690
6 | Cc1nc2cccc(-c3cc4n(c3)C(CCO)CNC4=O)c2nc1NC(C)(C)C (racemic) [Example 235, (±)-7-(3-(tert-butylamino)-2-methyl-5-quinoxalinyl)-4-(2-hydroxyethyl)-3,4-dihydropyrrolo[1,2-a]pyrazin-1(2H)-one] |  | 9.5 | 14.5
7 | Cc1nc2cccc(-c3cc4c([nH]3)CCNC4=O)c2nc1N[C@H]1C[C@@H](O)C1 [Example 439, 2-(3-((cis-3-Hydroxycyclobutyl)amino)-2-methylquinoxalin-5-yl)-6,7-dihydro-1H-pyrrolo[3,2-c]pyridin-4(5H)-one] |  | 2.5 | 1.4
8 | CCCCNc1nc2c(-c3cc4c([nH]3)CCNC4=O)cccc2nc1C [Example 159, 2-(3-(butylamino)-2-methylquinoxalin-5-yl)-6,7-dihydro-1H-pyrrolo[3,2-c]pyridin-4(5H)-one] |  | 3.1 | 1.7
9 | Cc1nc2cccc(-c3cc4c([nH]3)CCNC4=O)c2nc1NC1CNC1 [Example 150, 2-(3-(azetidin-3-ylamino)-2-methylquinoxalin-5-yl)-6,7-dihydro-1H-pyrrolo[3,2-c]pyridin-4(5H)-one] |  | 2 | 5.9
10 | Cc1nc2cccc(-c3cc4c([nH]3)C[C@@H](C)NC4=O)c2nc1NC(C)(C)C [Example 289, (6R)-2-(3-(tert-butylamino)-2-methyl-5-quinoxalinyl)-6-methyl-1,5,6,7-tetrahydro-4H-pyrrolo[3,2-c]pyridin-4-one] |  | 2.69 | 3.37
11 | Cc1nc2cccc(-c3cc4c([nH]3)CCNC4=O)c2nc1N[C@H]1CCN(C(=O)OC(C)(C)C)C1 [Example 49, (S)-tert-butyl-3-((3-methyl-8-(4-oxo-4,5,6,7-tetrahydro-1H-pyrrolo[3,2-c]pyridin-2-yl)quinoxalin-2-yl)amino)pyrrolidine-1-carboxylate] |  | 47.2 | 144
12 | Cc1nc2cccc(-c3cc4c([nH]3)CCNC4=O)c2nc1OCCC(C)(C)N [Example 269, 2-(3-(3-amino-3-methylbutoxy)-2-methyl-5-quinoxalinyl)-1,5,6,7-tetrahydro-4H-pyrrolo[3,2-c]pyridin-4-one] |  | 44.5 | 65.3
13 | Cc1nc2cccc(-c3cc4c([nH]3)CCNC4=O)c2nc1N[C@H]1CCNC1 [Example 55, 2-(2-methyl-3-((3S)-3-pyrrolidinylamino)-5-quinoxalinyl)-1,5,6,7-tetrahydro-4H-pyrrolo[3,2-c]pyridin-4-one] |  | 0.7 | 3
14 | Cc1nc2cccc(-c3cc4c([nH]3)CCNC4=O)c2nc1N[C@@H]1CCN(C(=O)OC(C)(C)C)C1 [Example 48, tert-butyl (3R)-3-((3-methyl-8-(4-oxo-4,5,6,7-tetrahydro-1H-pyrrolo[3,2-c]pyridin-2-yl)-2-quinoxalinyl)amino)-1-pyrrolidinecarboxylate] |  | 26.2 | 116
15 | Cc1nc2cccc(-c3cc4c([nH]3)CCNC4=O)c2nc1NC(C)C(F)(F)F (stereo in doubt) [Example 256, (R)-2-(2-methyl-3-((1,1,1-trifluoropropan-2-yl)amino)quinoxalin-5-yl)-6,7-dihydro-1H-pyrrolo[3,2-c]pyridin-4(5H)-one] |  | 4.97 | 4.32
16 | Cc1nc2cccc(-c3cc4c([nH]3)CCNC4=O)c2nc1N[C@H]1CC[C@H](O)CC1 [Example 206, 2-(3-((trans-4-hydroxycyclohexyl)amino)-2-methylquinoxalin-5-yl)-6,7-dihydro-1H-pyrrolo[3,2-c]pyridin-4(5H)-one] |  | 2.7 | 4
17 | CC(=O)N1CCC(Nc2nc3c(-c4cc5c([nH]4)CCNC5=O)cccc3nc2C)CC1 [Example 50, 2-(3-((1-acetyl-4-piperidinyl)amino)-2-methyl-5-quinoxalinyl)-1,5,6,7-tetrahydro-4H-pyrrolo[3,2-c]pyridin-4-one] |  | 13.7 | 24.4
18 | CC(=O)N1CCC[C@H](Nc2nc3c(-c4cc5c([nH]4)CCNC5=O)cccc3nc2C)C1 [Example 242, 2-(3-(((3S)-1-acetyl-3-piperidinyl)amino)-2-methyl-5-quinoxalinyl)-1,5,6,7-tetrahydro-4H-pyrrolo[3,2-c]pyridin-4-one] |  | 129 | 137
19 | Cc1nc2cccc(-c3cc4c([nH]3)CCNC4=O)c2nc1NC1CCN(C(=O)OC(C)(C)C)CC1 [Example 47, tert-butyl 4-((3-methyl-8-(4-oxo-4,5,6,7-tetrahydro-1H-pyrrolo[3,2-c]pyridin-2-yl)-2-quinoxalinyl)amino)-1-piperidinecarboxylate] |  | 13.2 | 34.9
20 | Cc1nc2cccc(-c3cc4c([nH]3)[C@@H](C)NC4=O)c2nc1N[C@H]1CCC[C@@H](NC(=O)[C@H](N)CO)C1 [Example 497, N-((1R,3S)-3-((3-methyl-8-((6R)-6-methyl-4-oxo-1,4,5,6-tetrahydropyrrolo[3,4-b]pyrrol-2-yl)-2-quinoxalinyl)amino)cyclohexyl)-D-serinamide] |  | 0.28 | 0.16
21 | Cc1nc2cccc(-c3cc4c([nH]3)CCNC4=O)c2nc1NC(C)(C)CS(C)(=O)=O [Example 274, 2-(3-((1,1-dimethyl-2-(methylsulfonyl)ethyl)amino)-2-methyl-5-quinoxalinyl)-1,5,6,7-tetrahydro-4H-pyrrolo[3,2-c]pyridin-4-one] |  | 44.4 | 39.5
22 | C[C@H]1NC(=O)c2cc(-c3cccc4c(=O)n(-c5cccnc5)c(NC(C)(C)C)nc34)[nH]c21 [Example 482, 2-(tert-butylamino)-8-((6R)-6-methyl-4-oxo-1,4,5,6-tetrahydropyrrolo[3,4-b]pyrrol-2-yl)-3-(3-pyridinyl)-4(3H)-quinazolinone] |  | 0.718 | 2.77

Reference: patent US9394297B2, “Amides as pim inhibitors” (AMGEN INC., priority 2012, dated 2016)
